Laboratory results published in US20110236885A1 (Academia Sinica, priority 2004, published 2011).
Where “and” joins values, the source holds several entries; their conditions need not be identical. Identical values can stand only once.

Assays:
[1] = test system: randomly selected Chinese patients receiving warfarin; experiment: Warfarin maintenance dose and INR in 104 randomly selected Chinese patients receiving warfarin, by VKORC1 -1639 genotype; format: in vivo, human
Procedure: (§1) Clinical information (including age, sex, weight, and average daily maintenance dose) was obtained from every participant.
Briefly, primers and probes were designed using the Spectro[…] software (Sequenom). Multiplex PCR was performed, and unincorporated dNTPs were dephosphorylated using shrimp alkaline phosphatase (Hoffman-LaRoche, Basel, Switzerland), followed by primer extension. The purified primer extension reactions were spotted onto a 384-element silicon chip (SpectroCHIP, Sequenom), analyzed in the Bruker Biflex III MALDI-TOF SpectroREADER mass spectrometer (Sequenom), and the resulting spectrum was processed with SpectroTYPER (Sequenom).
We analyzed the data regardless of the presence of other confounding variables, such as diet or other medications.

[2] = test system: Han Chinese patients having warfarin sensitivity and resistance; experiment: Warfarin maintenance dose and INR in selected Chinese patients with warfarin sensitivity or resistance, by VKORC1 -1639 genotype; format: in vivo, human; settings: for Dose: individual patients; for dose requirements, mean / dose requirements, range: selected patients
Description: as §1
Primers were specifically designed for the intron-exon junctions, exons and 2 kbps upstream of the transcription start site for both CYP2C9 and VKORC1 using the Primer3 PCR primer program (http://fokker.wi.mit.edu/cgi-bin/primer3/primer3_www.cgi). The primers used to detect variants in the VKORC1 promoter were: 5′-[…] (SEQ ID NO:2; sense strand located 1.5 kb upstream of the transcription start site) and 5′-[…] (SEQ ID NO:3; anti-sense strand located 0.9 kb upstream of the transcription start site). The polymerase chain reactions (PCR) were performed in a final volume of […] containing 0.4 μM of each primer, 10 mM Tris-HCl (pH8.3), 50 mM KCl, 1.5 mM MgCl2, 0.2 mM dNTPs and 1 unit HotStart Taq™ (Qiagen Inc, Valencia, Calif., USA). Amplification conditions consisted of an initial denaturation of 12 min at 96° C., followed by 34 PCR cycles in 30 sec at 96° C., 30 sec at 60° C., 40 sec at 72° C.
The variants were: 1075 A>C (1359L known as CYP2C9*3), 895 A>G (T299A), and 1145 C>T (P382L).
We also sequenced the promoter, coding regions, and the exon-intron junctions of the VKORC1 gene.

[3] = heterozygous AG at VKORC1 -1639

Compound: CC(=O)CC(c1ccccc1)c1c(O)c2ccccc2oc1=O (racemic) [warfarin, 4-hydroxy-3-(3-oxo-1-phenylbutyl)-2H-1-benzopyran-2-one]
- warfarin dose, upper limit observed ([1]; none of the randomly selected patients had a greater dose): ≤ 6 mg/day
- maintenance dose ([1]; randomly selected patients, AA genotype): 2.61+/−1.10 my/day
- Warfarin dose, ([1]; randomly selected patients, VKORC1 -1639 AG + GG (n = 21), mean ± SD): 3.81 ± 1.24 mg/day and 3.81 mg/day
- Dose ([2]; VKORC1 -1639 AA, warfarin sensitive group (dose ≦1.5 mg/day), average daily maintenance dose): 1.43 mg/d and 1.5 mg/d and 0.71 mg/d and 1 mg/d (2×)
- Dose ([2]; VKORC1 -1639 AG, warfarin resistant group (dose ≧6 mg/day)): 6.07 mg/day and 10 mg/day
- Dose ([2]; VKORC1 -1639 GG, warfarin resistant group (dose ≧6 mg/day)): 8.57 mg/day and 8.75 mg/day and 10 mg/day
- dose requirements, mean ([2]; AA genotype at VKORC1 -1639): 1.19 mg/day
- dose requirements, range ([2]; AA genotype at VKORC1 -1639): 0.71 to 1.50 mg/day
- dose requirements, mean [2, 3]: 8.04 mg/day
- dose requirements, range [2, 3]: 6.07 to 10 mg/day
- dose requirements, mean ([2]; homozygous GG at VKORC1 -1639): 9.11 mg/day
- dose requirements, range ([2]; homozygous GG at VKORC1 -1639): 8.57 to 10 mg/day
